Experiments:
[1] = biological target: T1, Neuraminidase (Influenza A virus, UniProt B4URF0); experiment: Non-competitive inhibition of influenza A virus H1N1 Neuraminidase using 4-methylumbelliferyl-alpha-D-N-acetylneuraminic acid sodium salt hydrate substrate by Lineweaver burk plot
[2] = biological target: T1, Neuraminidase; experiment: Inhibition of influenza A virus H9N2 Neuraminidase using 4-methylumbelliferyl-alpha-D-N-acetylneuraminic acid sodium salt hydrate substrate
[3] = biological target: T1, Neuraminidase; experiment: Inhibition of influenza A virus H1N1 Neuraminidase using 4-methylumbelliferyl-alpha-D-N-acetylneuraminic acid sodium salt hydrate substrate

| SMILES | Ki [1] [µM] | IC50 [2] [µM] | IC50 [3] [µM] |
| --- | --- | --- | --- |
| CC(C)=CCc1cc(/C=C/C(=O)c2ccc(O)cc2O)ccc1O [LICOAGROCHALCONE A] | 68.9 | 61.7 | 66.3 |
| COc1ccc(/C(C=O)=C\c2ccc(O)cc2OC)c(O)c1 [ERYTHRADDISON B] | 32.7 | 23.9 | 29.3 |
| CC(C)=CCc1cc(-c2coc3cc(O)cc(O)c3c2=O)ccc1O [CORYLIN] | – | > 148 | > 148 |
| CC(C)=CCc1c(O)cc2occ(-c3ccc(O)cc3)c(=O)c2c1O [WIGHTEONE] | – | > 148 | > 148 |
| CC(C)=CCc1cc(/C=C/C(=O)c2ccc(O)cc2O)cc(O)c1O [5'-PRENYLBUTEIN] | 66.7 | 60.1 | 64.4 |
| CC(C)=CCc1cc(/C=C/C(=O)c2ccc(O)cc2O)cc(CC=C(C)C)c1O [ABYSSINONE VI] | 70 | 62.6 | 67.4 |
| C=C(C)C(O)CC1=c2occ(-c3ccc(O)cc3)c(=O)c2=C(O)C2C=CC(C)(C)OC12 (configuration not stated) [ERYSENEGALENSEIN] | – | > 118 | > 118 |
| CC1(C)C=Cc2c(c(CO)c3occ(-c4ccc(O)cc4)c(=O)c3c2O)O1 [ERYTHRADDISON A] | – | > 136 | > 136 |
| CC1(C)C=Cc2cc(-c3coc4cc(O)ccc4c3=O)ccc2O1 [ISOWIGHTEONE] | – | > 156 | > 156 |
